Data taken from patent US10590422B2, “Anticancer therapeutic intervention” (PHYZAT BIOPHARMACEUTICALS, LDA., priority 2017, dated 2020).

Key:
[1] = test system: LAT1; experiment: LAT1 activity: [^14C]-L-leucine uptake in fibrosarcoma HT-1080 cells after LAT1 gene silencing; assay type: cell-based, human; settings: 5 nM siRNA, treatment 6 h, at 48 h, 0.4% Lipofectamine 2000, FIG. 8A
Procedure: (§1) Cells were plated in 24-well plates (Sarstedt, Germany) and grown until confluence was reached. On the day of the experiment, cell culture medium was aspirated and cells were preincubated for 15 min in Hanks' medium (NaCl 140 mM, KCl 5 mM, MgSO4.7H2O 0.8 mM, K2HPO4 0.33 mM, KH2PO4 0.44 mM, MgCl2.6H2O 1 mM, CaCl2) 0.025 mM, Tris-HCl 9.75 mM, pH 7.4). Uptake was initiated by addition of Hanks' medium with 0.25 μM [^14C]-L-leucine in the absence and in the presence of 3 mM unlabeled L-leucine. During preincubation and incubation cells were continuously shaken and maintained at 37° C. Uptake was terminated after 1 min by rapid removal of uptake solution by means of a vacuum pump connected to a Pasteur pipette, followed by a rapid wash with Hanks' medium. Subsequently, cells were solubilized in 0.1% vol/vol Triton X-100 (dissolved in 5 mM Tris-HCl, pH 7.4), and radioactivity was measured by liquid scintillation counting.
(§2) Cells were plated in 24-well (Sarstedt, Germany) or 6-well plates (Sarstedt, Germany) or 96-well plates with black walls clear bottom (BD Biosciences, USA) and incubated 24 h under normal growth conditions. siRNAs against LAT1 and transfection agent were diluted at desired concentrations and mixed according to transfection agent manufacturer's instructions. The mixture was incubated 20 min at RT for siRNA-complex formation, after which it was added to the cells and incubated at 37° C., 5% CO2. After the incubation period, serum and antibiotic was restored and cells were further incubated at normal conditions for the desired time points until evaluation of LAT1 activity or LAT1 expression (immunoblotting and RT-qPCR).

[2] = test system: LAT1 mRNA; experiment: LAT1 gene expression (RT-qPCR) after LAT1 gene silencing in human colon cancer HTC-116 cells; assay type: cell-based; settings: treatment 6 h
Procedure: (§3) SK-HEP-1, T24, HT-1080 and HCT-116 cell lines were maintained in a humidified atmosphere of 5% CO2 at 37° C. SK-HEP-1 cells were grown in RPMI-1640 (Sigma, St. Louis, Mo.) supplemented with 20% fetal bovine serum (FBS) (Gibco, UK), 100 U/mL penicillin G, 0.25 μg/mL amphotericin B, 100 μg/mL streptomycin (Gibco, UK), 25 mM sodium bicarbonate (Merck, Germany) and 25 mM N-2-hydroxyethylpiperazine-N′-2-ethanosulfonic acid (HEPES) (Sigma, St. Louis, Mo.). T24 and HT-1080 cells were grown, respectively, in Dulbecco's Modified Eagle's Medium (DMEM)—high glucose (Sigma, St. Louis, Mo.) and DMEM—low glucose (Sigma, St. Louis, Mo.), supplemented with 10% FBS (Gibco, UK), 100 U/mL penicillin G, 0.25 μg/mL amphotericin B, 100 μg/mL streptomycin (Gibco, UK), 25 mM sodium bicarbonate (Merck, Germany) and 25 mM HEPES (Sigma, St. Louis, Mo.). HCT-116 cells were grown in McCoy's 5A (Sigma, St. Louis, Mo.) supplemented with 10% FBS (Gibco, UK), 100 U/mL penicillin G, 0.25 μg/mL amphotericin B, 100 μg/mL streptomycin (Gibco, UK), 25 mM sodium bicarbonate (Merck, Germany) and 25 mM HEPES (Sigma, St. Louis, Mo.). For all cell lines the medium was changed every 2 days, and cells reached confluence 3-4 days after initial seeding. For subculturing, cells were dissociated with 0.25% trypsin-ethylenediaminetetraacetic acid (EDTA) (Sigma, St. Louis, Mo.), split 1:15 or 1:20 and subcultured in a 21-cm^2 growth area (Sarstedt, Germany).
(§4) Total RNA was isolated and purified using the SV Total RNA Isolation System (Promega, USA) according to manufacturer's instructions. RNA quality and concentration were verified in the NanoDrop ND1000 Spectrophotometer (Thermo Scientific, USA), and RNA integrity and genomic DNA contamination were evaluated by agarose gel electrophoresis. Total RNA (1 μg) was converted into cDNA using the Maxima Scientific First Strand cDNA Synthesis Kit for RT-qPCR (Thermo Scientific, USA), according to instructions. The following protocol was used: 1st step, 10 min at 25° C.; 2nd step, 15 min at 50° C.; 3rd step, 5 min at 85° C. cDNA was used for qPCR analysis using Maxima SYBR Green qPCR Master Mix (Thermo Scientific, USA) in the StepOnePlus instrument (Applied Biosystems, USA). QuantiTect Primer Assay for LAT1 and ASCT2 and for the endogenous control gene GAPDH (Quiagen, Germany) were used. The qPCR reaction was performed in 96-well PCR plates (Sarstedt, Germany) as follows: one cycle of 10 min at 95° C., followed by 40 PCR cycles at 95° C. 15 s and 60° C. 60 s. […] No template controls were always evaluated for each target gene. Quantification cycle (Cq) values were generated automatically by the StepOnePlus 2.3 Software and the ratio of the target gene was expressed in comparison to the endogenous control gene GAPDH.
as §2

[3] = test system: human colon cancer HTC-116 cells; experiment: Cell proliferation assay (calcein-AM) in human colon cancer HTC-116 cells; assay type: cell-based; settings: for cell proliferation / proliferation: treatment 6 h; for cell proliferation: 72 h exposure; for proliferation: at 72 h, 0.17% Lipofectamine 2000 or 0.1% Injectin, FIGS. 19B and 20B
Procedure: as §3
Cell proliferation was measured using calcein-AM (Thermo Fisher Scientific, USA). The membrane permeant calcein-AM, a nonfluorescent dye, is taken up and converted by intracellular esterases to membrane impermeant calcein, which emits green fluorescence. Cells were plated in 96-well plates with black walls clear bottom (BD Biosciences, USA) and incubated 24 h under normal growth conditions. Cells were incubated with test items at 37° C., 5% C02. After the incubation period, serum and antibiotic was restored and cells were further incubated at normal conditions during 72 h. After treatment with test substances or vehicle, cells were washed twice with Hanks' medium and loaded with 2 μM calcein-AM in Hanks' medium, at 37° C. for 30 min. Fluorescence was measured at 485 nm excitation and 530 nm emission wavelengths in a microplate spectrofluorometer (Gemini EM, Molecular Devices). Nine consecutive fluorescence measurements are performed per well, to allow fluorescence readings in the whole area of the well, which was then considered for the calculation of mean fluorescence per well. To determine minimum staining for calcein (calceinmin), eight wells were treated with ethanol 30 min before calcein-AM addition. The percent cell number is calculated as [(calceinsample)/(calceincontrol)]×100.

[4] = test system: ASCT2; experiment: ASCT2 activity: [^14C]-L-alanine uptake in SK-HEP-1 cells after ASCT2 gene silencing; assay type: cell-based, human; settings: ASCT2 siRNA; general statement, conditions not given
Procedure: as §1, with “the experiment, Cell culture medium” for “the experiment, cell culture medium”, “Hanks' medium (ChCl 140 mM,” for “Hanks' medium (NaCl 140 mM,”, “initiated by the addition of” for “initiated by addition of”, “0.25 μM [^14C]-L-alanine in the” for “0.25 μM [^14C]-L-leucine in the”, “mM unlabeled L-alanin. During preincubation” for “mM unlabeled L-leucine. During preincubation”
as §2, with “ASCT2” for “LAT1”

[5] = test system: ASCT2 mRNA; experiment: ASCT2 gene expression (RT-qPCR, relative to GAPDH) after ASCT2 gene silencing in SK-HEP-1 cells; assay type: cell-based, human; settings: at 24 h; for ASCT2 mRNA relative abundance: liver carcinoma SK-HEP-1 cells, 10 nM siRNA, treatment 6 h, 0.5% Lipofectamine 2000, FIG. 4B
Procedure: as §3, §4
as §2, with “ASCT2” for “LAT1”

[6] = test system: ASCT2; experiment: ASCT2 activity: [^14C]-L-alanine uptake in fibrosarcoma HT-1080 cells after ASCT2 gene silencing; assay type: cell-based, human; settings: fibrosarcoma HT-1080 cells; 5 nM siRNA; treatment 6 h; at 48 h; 0.4% Lipofectamine 2000; FIG. 8B
Procedure: as §1, with “the experiment, Cell culture medium” for “the experiment, cell culture medium”, “Hanks' medium (ChCl 140 mM,” for “Hanks' medium (NaCl 140 mM,”, “initiated by the addition of” for “initiated by addition of”, “0.25 μM [^14C]-L-alanine in the” for “0.25 μM [^14C]-L-leucine in the”, “mM unlabeled L-alanin. During preincubation” for “mM unlabeled L-leucine. During preincubation”
as §2, with “ASCT2” for “LAT1”

[7] = test system: ASCT2 mRNA; experiment: ASCT2 gene expression (RT-qPCR) after ASCT2 gene silencing in human colon cancer HTC-116 cells; assay type: cell-based; settings: treatment 6 h
Procedure: as §3, §4
as §2, with “ASCT2” for “LAT1”

[8] = 5 or 25 nM siRNA, at 24 h or 48 h, 0.5% Lipofectamine 2000, FIGS. 9A and 9C
[9] = 72 h, 0.17% Lipofectamine 2000 or 0.1% Injectin, FIG. 19A
[10] = 5 or 25 nM siRNA, at 24 h or 48 h, 0.5% Lipofectamine 2000, FIGS. 9B and 9C
[11] = 72 h, 0.17% Lipofectamine 2000 or 0.1% Injectin, FIG. 20A

| Substance | [^14C]-L-leucine (0.25 μM) uptake at initial rate of uptake (1 min) [1] | LAT1 mRNA relative abundance [2, 8] | LAT1 mRNA relative abundance [2, 9] | cell proliferation ([3]; 0.1% Injectin, FIG. 14) | proliferation [3] | inhibiting sodium-independent [^14C]-L-leucine transport [4] | ASCT2 mRNA relative abundance [5] | [^14C]-L-alanine (0.25 μM) uptake at initial rate of uptake (1 min) [6] | ASCT2 mRNA relative abundance [7, 10] | ASCT2 mRNA relative abundance [7, 11] | other results |
| --- | --- | --- | --- | --- | --- | --- | --- | --- | --- | --- | --- |
| 58/162/411 (sense CUUCGCCACCUACCUGCUCAA; antisense UUGAGCAGGUAGGUGGCGAAG; chemistry not given here) | decreased | decreased | significantly decreased | decreased | significantly decreased | – | – | – | – | – | – |
| 61/165/396 (sense CGUGAACUGCUACAGCGUGAA; antisense UUCACUCUGUAGCAGUUCACG; chemistry not given here) | decreased | decreased | significantly decreased | decreased | significantly decreased | – | – | – | – | – | – |
| 61/391/392 (chain 1 CGUGAACUGCUACAGCGUGAATT; chain 2 UUCACUCUGUAGCAGUUCACGTT; siRNA; sugars by position and backbone not given here; further chemistry not fully specified) | decreased | decreased | significantly decreased | decreased | significantly decreased | – | – | – | – | – | Effect of 5-fluoruracil upon proliferation in combination with the siRNA ([3]; 5-FU 10 μM, siRNA 25 nM, 72 h, 0.037% Injectin, FIG. 17A): not |
| 225 (AATAATGGCGTGGCCAAGCAC; chemistry not given here) [compound 225] | – | – | – | – | – | particularly effective | decreased | – | – | – | – |
| 237 (AATTACGTGGACCGTACGGAG; chemistry not given here) [compound 237] | – | – | – | – | – | particularly effective | decreased | – | – | – | – |
| 267 (CCGGTCCTGTACCGTCCTCAA; chemistry not given here) [compound 267] | – | – | – | – | – | particularly effective | decreased | – | – | – | – |
| 267/356/402 (sense CCGGUCCUGUACCGUCCUCAA; antisense UUGAGGACGGUACAGGACCGG; chemistry not given here) | – | – | – | decreased | significantly decreased | – | – | decreased | decreased | significantly decreased | – |
| 267/397/398 (sense CCGGUCCUGUACCGUCCUCAATT; antisense UUGAGGACGGUACAGGACCGGTT; siRNA; sugars by position and backbone not given here; further chemistry not fully specified) | – | – | – | decreased | significantly decreased | – | – | decreased | decreased | significantly decreased | Effect on cell proliferation compared with SEQ ID NO: 267/356/402 ([3]; 72 h, 0.1% Injectin, p<0.05): significantly greater; Effect of siRNA-LAT1 SEQ ID NO: 58/387/388 upon proliferation in combination with the siRNA-ASCT2 ([3]; 72 h, siRNA-ASCT2 at non-efficacious conditions (0.037% Injectin), FIG. 18): enhanced; cell proliferation ([3]; increasing Injectin (0.037% to 0.15%), FIG. 15): decreased |
| 278 (TGCCACGGTCGCCTCTGAGAA; chemistry not given here) [compound 278] | – | – | – | – | – | particularly effective | decreased | – | – | – | Effect on ASCT2 mRNA relative abundance compared with SEQ ID NO: 267 ([5]; SK-HEP-1 cells, 10 nM, p<0.05): significantly greater |
| 278/367/408 (sense UGCCACGGUCGCCUCUGAGAA; antisense UUCUCAGAGGCGACCGUGGCA; chemistry not given here) | – | – | – | decreased | significantly decreased | – | – | decreased | decreased | significantly decreased | – |
